# Measurements: article PMC5675611, “GZD824 suppresses the growth of human B cell precursor acute lymphoblastic leukemia cells by inhibiting the SRC kinase and PI3K/AKT pathways” (Oncotarget, 2016)
# Assays:
# [1] = test system: SUPB15 cells; assay: Annexin V apoptosis flow cytometry; assay type: cell-based, human; conditions: 24 h
# Description: Human pre-B ALL cell lines NALM6 and SUPB15 were purchased from American Type Culture Collection (ATCC, Maryland, USA). All pre-B ALL cell lines were maintained in cell culture media and conditions as recommended by the ATCC. Cells were treated with GZD824 for 24 hours. GZD824 (3μM, 1μM, or 0.5μM) was used in the experiments unless otherwise noted. NALM6 and SUPB15 cells were maintained in RPMI-1640 medium (Gibco, New York, NY, USA) with 10% fetal bovine serum (Biochrom, Melbourne, Australia). For identification of apoptotic cells among NALM6, SUPB15, and primary pre-B ALL cells, the GZD824-treated cells were stained with Annexin V Apoptosis Detection Kit (88-8007, BD ebioscience, CA, USA) according to the manufacturer's instructions (Affymetrix ebioscience, CA, USA) and then subjected to flow cytometric analysis by the Accuri™ C6 (BD Biosciences, CA, USA). For the in vitro drug sensitivity test in Figure 6A, the human CD45+ cells in spleen and bone marrow from sick mice account for over 95% of the total. We enriched human CD45+ cells in PB by MACS according to the manufacturer's instruction. After the enrichment, the purity of human CD45+ cell in PB reached 95%. […] All data were analyzed with FlowJo software (Tree Star, Inc., Ashland, USA).
# [2] = molecular target: T1, SRC (Homo sapiens, UniProt P12931); assay: Active-site-dependent competition kinase binding assay (KINOMEscan)
# T1 construct: purchased Ambit Bioscience (CA, USA), KINOMEscan service
# Description: (§1) Kinase assay was performed as previously described. The binding activities of GZD824 were analyzed by KINOME scan system conducted by Ambit Bioscience (CA, USA). Briefly, kinases were tagged with DNA. The ligands were biotinylated and immobilized to streptavidin coated beads. The binding reactions were assembled by incubating DNA-tagged kinases, immobilized ligands, and test compounds in binding reactions (20% SeaBlock, 0.17×PBS, 0.05% tween-20, 6 mM DTT) for 1.0 h at room temperature. The affinity beads were washed with washing buffer (1×PBS, 0.05% Tween-20) first and then elution buffer (1×PBS, 0.05% Tween 20, 0.5μM nonbiotinylated affinity ligands). The kinase concentration in the eluate was determined by quantitative PCR of the DNA tagged to the kinase. The ability of the test compound to bind to the kinase was evaluated with percent control (%) as (test compound signal −positive control signal)/negative control signal−positive control signal) ×100%. Negative control is DMSO control (100% ctrl) and positive control is control compound (0% ctrl).
# [3] = test system: JAK; assay: as above
# Description: as §1
# [4] = molecular target: T2, ABL (Homo sapiens, UniProt P00519); assay: as above
# T2 construct: purchased Ambit Bioscience (CA, USA), KINOMEscan service
# Description: as §1
# [5] = test system: MAPK; assay: as above
# Description: as §1
# T1 sequence (P12931 whole entry): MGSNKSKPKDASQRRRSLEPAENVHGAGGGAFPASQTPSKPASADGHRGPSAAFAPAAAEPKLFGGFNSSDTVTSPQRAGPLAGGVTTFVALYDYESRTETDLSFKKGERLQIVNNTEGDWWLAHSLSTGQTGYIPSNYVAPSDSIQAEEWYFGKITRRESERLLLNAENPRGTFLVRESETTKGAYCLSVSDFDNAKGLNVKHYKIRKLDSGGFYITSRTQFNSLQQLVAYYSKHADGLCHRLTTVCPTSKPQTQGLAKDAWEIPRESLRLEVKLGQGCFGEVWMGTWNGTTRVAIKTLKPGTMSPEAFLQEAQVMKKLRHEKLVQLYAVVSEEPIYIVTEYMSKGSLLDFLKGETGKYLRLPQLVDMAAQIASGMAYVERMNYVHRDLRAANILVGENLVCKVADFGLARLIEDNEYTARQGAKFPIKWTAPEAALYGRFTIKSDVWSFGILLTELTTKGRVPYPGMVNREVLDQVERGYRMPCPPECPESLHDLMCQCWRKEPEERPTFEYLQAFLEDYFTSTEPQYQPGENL
# T2 sequence (P00519 whole entry): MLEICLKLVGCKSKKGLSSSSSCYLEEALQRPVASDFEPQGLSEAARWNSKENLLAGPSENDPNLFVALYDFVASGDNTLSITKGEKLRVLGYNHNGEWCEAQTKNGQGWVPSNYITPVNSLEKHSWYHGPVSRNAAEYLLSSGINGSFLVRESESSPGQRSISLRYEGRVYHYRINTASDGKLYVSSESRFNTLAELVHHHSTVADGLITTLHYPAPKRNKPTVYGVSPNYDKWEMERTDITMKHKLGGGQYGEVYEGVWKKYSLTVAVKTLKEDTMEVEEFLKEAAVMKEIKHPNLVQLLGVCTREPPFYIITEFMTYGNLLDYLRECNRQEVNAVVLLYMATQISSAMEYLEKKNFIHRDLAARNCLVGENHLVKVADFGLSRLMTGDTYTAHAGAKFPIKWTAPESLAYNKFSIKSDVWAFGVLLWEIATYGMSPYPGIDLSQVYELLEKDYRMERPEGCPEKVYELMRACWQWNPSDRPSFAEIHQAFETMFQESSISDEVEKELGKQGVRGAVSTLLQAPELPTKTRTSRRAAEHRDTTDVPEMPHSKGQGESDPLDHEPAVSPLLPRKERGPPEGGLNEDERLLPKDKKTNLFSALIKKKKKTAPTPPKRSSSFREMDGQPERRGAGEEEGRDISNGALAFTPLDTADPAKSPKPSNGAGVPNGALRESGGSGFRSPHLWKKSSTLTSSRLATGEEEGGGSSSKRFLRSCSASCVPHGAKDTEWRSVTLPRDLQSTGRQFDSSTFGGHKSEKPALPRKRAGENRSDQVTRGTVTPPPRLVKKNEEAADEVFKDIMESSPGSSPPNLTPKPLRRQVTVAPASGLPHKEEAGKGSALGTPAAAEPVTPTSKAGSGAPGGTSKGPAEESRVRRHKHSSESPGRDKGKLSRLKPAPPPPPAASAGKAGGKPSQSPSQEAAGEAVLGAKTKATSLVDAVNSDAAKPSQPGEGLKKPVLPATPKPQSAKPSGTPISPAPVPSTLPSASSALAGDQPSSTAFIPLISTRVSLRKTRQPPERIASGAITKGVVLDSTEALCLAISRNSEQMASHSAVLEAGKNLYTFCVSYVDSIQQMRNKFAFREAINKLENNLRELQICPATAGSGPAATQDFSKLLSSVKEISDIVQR
smiles,measurement,setting,value
Cc1ccc(C(=O)Nc2ccc(CN3CCN(C)CC3)c(C(F)(F)F)c2)cc1C#Cc1cnc2[nH]ncc2c1 [GZD824],apoptotic rate,"[1]; SUPB15, 1μM",moderate
same,cells undergoing apoptosis (AnnexinV+),"[1]; SUPB15, 3μM",48.3%
same,remaining binding at 0.01 µM,"[2]; SRC, 10 nM, mean of two independent experiments, read-out: %Ctrl@10nM",26%
same,remaining binding at 0.1 µM,"[2]; SRC, 100 nM, mean of two independent experiments, read-out: %Ctrl@100nM",0.75%
same,binding to the SRC kinase (in words),[2]; kinase assay,high affinity
same,%Ctrl@10nM,"[3]; JAK, 10 nM, mean of two independent experiments",100%
same,%Ctrl@100nM,"[3]; JAK, 100 nM, mean of two independent experiments",100%
same,binding to JAK (in words),[3]; kinase assay,does not bind
same,remaining binding at 0.01 µM,[4]; read-out: %Ctrl@10nM,2.8%
same,remaining binding at 0.1 µM,[4]; read-out: %Ctrl@100nM,0.15%
same,%Ctrl@10nM,"[5]; MAPK, 10 nM, mean of two independent experiments",81%
same,%Ctrl@100nM,"[5]; MAPK, 100 nM, mean of two independent experiments",81%
same,binding to MAPK (in words),[5]; kinase assay,does not bind
